These results are taken from US20240376097A1, “BCL-2 Inhibitor” (BeiGene Ltd., priority 2020, published 2024).

Read-outs that look alike come from different tables or passages of the source.

Assay [1] concerns the target Recombinant human Bcl-2 protein (Homo sapiens (Human), UniProt P10415). Nature of the assay: Bcl-2 TR-FRET Assay. In kind it is binding. An outline of the steps: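 0.05 nM recombinant Bcl-2 preincubated 0.5 h at room temperature with 10-point compound dilutions (top final 1, 0.1, 0.02 or 0.01 uM) in pH 7.5 phosphate buffer. FITC-Bak peptide (0.5 nM) and anti-6His Tb cryptate then added for 1 h. TR-FRET read; IC50 from four-parameter logistic fit.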

The target in assay [2] is recombinant human Bcl-2-G101V protein (Homo sapiens (Human), UniProt P10415, G101V). As to the kind of experiment: Bcl-2-G101V TR-FRET Assay. It counts as binding. The conditions noted are these: Bcl-2 G101V mutant, TR-FRET; read-out: Biochemical assay (IC50, nM) Bcl-2 G101V. An outline of the steps:
(§1)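 TR-FRET read at excitation 337 nm with emission at 490 nm and 520 nm. Inhibition of Bcl-2-G101V binding to its ligand across increasing compound concentrations was calculated from the 490/520 nm fluorescence ratio, and IC50 values came from four-parameter logistic fits.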

Assay [3] concerns recombinant human Bcl-2-G101V protein. Nature of the assay: Bcl-2-G101V TR-FRET Assay. In kind it is binding. The following applies: for Ratio of Bcl-2 G101V/WT: ratio of biochemical IC50 Bcl-2 G101V / Bcl-2 WT; for ratio of IC50 of Bcl-2 G101V/Bcl-2 wt, compared with Example F132b in WO2019210828 and ABT-199 (venetoclax): comparison in words. The essentials: as §1
A general note: Time-resolved FRET reads energy transfer from a long-lived donor to a nearby acceptor.

Assay [4] deals with BCL-2 G101V knock-in cell line H96 (derive from RS4;11). As to the kind of experiment: Bcl 2-G101V Knock-In RS4;11 Cell Proliferation Assay. In kind it is cell-based. The conditions noted are these: Homo sapiens, RS4-11, 48 h, RS4;11 Bcl-2 G101V knock-in clone H96, 48 hrs, CellTiter-GLO, read-out: Cellular proliferation assay (IC50, nM) RS4. An outline of the steps:
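H96, a CRISPR-generated RS4;11 clone carrying BCL2-G101V knock-in (WES/RNA-seq validated), seeded 50,000 per well and exposed 48 h at 37 °C to 10-point dilutions topping at 1 or 10 μM. Viability by CellTiter-Glo luminescence; mean IC50.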
Background: In ATP-based viability assays light output follows the ATP content of the culture.

Where [5] appears, read: Bcl-2 wild type, TR-FRET, read-out: Biochemical assay (IC50, nM) Bcl-2 WT.
[6] abbreviates: wild type Bcl-2, unit inferred, read-out: Bcl-2 WT.

Regarding `COc1ccc(CN2CCN(C3CC4(CCN(c5ccc(C(=O)NS(=O)(=O)c6ccc(NC[C@H]7CC[C@](C)(O)CC7)c([N+](=O)[O-])c6)c(Oc6cnc7[nH]ccc7c6)c5)CC4)C3)C(c3ccccc3C(C)C)C2)cn1` (stereo partly drawn) [Example 72, 2-((1H-pyrrolo[2,3-b]pyridin-5-yl)oxy)-N-((4-((((1r,4r)-4-hydroxy-4-methylcyclohexyl)methyl)amino)-3-nitrophenyl)sulfonyl)-4-(2-(2-(2-isopropylphenyl)-4-((6-methoxypyridin-3-yl)methyl)piperazin-1-yl)-7-azaspiro[3.5]nonan-7-yl)benzamide], the IC50 in assay [1] (setting [5]) amounted to 0.05 nM; in assay [1] (setting [6]), 0.05 nM; in assay [2] it was 0.2 nM; in assay [4], 1.7 nM. In assay [3], the “Ratio of Bcl-2 G101V/WT” value is on record as 4.

Turning to `CC(C)c1ccccc1[C@@H]1CN(Cc2cccc3c2OCCO3)CCN1C1CC2(CCN(c3ccc(C(=O)NS(=O)(=O)c4ccc(NC[C@H]5CC[C@](C)(O)CC5)c([N+](=O)[O-])c4)c(Oc4cnc5[nH]ccc5c4)c3)CC2)C1` [Example 79a, 2-((1H-pyrrolo[2,3-b]pyridin-5-yl)oxy)-4-(2-(R-4-((2,3-dihydrobenzo [b][1,4]dioxin-5-yl)methyl)-2-(2-isopropylphenyl)piperazin-1-yl)-7-azaspiro[3.5]nonan-7-yl)-N-((4-((((1r,4r)-4-hydroxy-4-methylcyclohexyl)methyl)amino)-3-nitrophenyl)sulfonyl)benzamide], the IC50 stood at 0.11 nM in assay [1] (setting [5]), 0.11 nM in assay [1] (setting [6]), 0.25 nM in assay [2] and 0.48 nM in assay [4]. Besides, the “Ratio of Bcl-2 G101V/WT” value in assay [3] is recorded as 2.4.

For the compound `COc1ccc(CN2CCN(C3CC4(CCN(c5ccc(C(=O)NS(=O)(=O)c6ccc(NC[C@H]7CC[C@](C)(O)CC7)c([N+](=O)[O-])c6)c(Oc6cnc7[nH]ccc7c6)c5)CC4)C3)[C@H](c3ccccc3C(C)C)C2)cc1OC` [Example 81a, 2-((1H-pyrrolo[2,3-b]pyridin-5-yl)oxy)-4-(2-((R)-4-(3,4-dimethoxybenzyl)-2-(2-isopropylphenyl)piperazin-1-yl)-7-azaspiro[3.5]nonan-7-yl)-N-((4-((((1r,4r)-4-hydroxy-4-methylcyclohexyl)methyl)amino)-3-nitrophenyl)sulfonyl)benzamide], the results for the IC50 in assay [1] (setting [5]), in assay [2] and in assay [4] were 0.038 nM, 0.075 nM and 0.48 nM, respectively. Also, the “Ratio of Bcl-2 G101V/WT” value in assay [3] is 2.0.

Regarding `COc1ccc(CN2CCN(C3CC4(CCN(c5ccc(C(=O)NS(=O)(=O)c6ccc(NC[C@H]7CC[C@](C)(O)CC7)c([N+](=O)[O-])c6)c(Oc6cnc7[nH]cc(F)c7c6)c5)CC4)C3)[C@H](c3ccccc3C(C)C)C2)cc1OC` [Example 127, 4-(2-((R)-4-(3,4-dimethoxybenzyl)-2-(2-isopropylphenyl)piperazin-1-yl)-7-azaspiro[3.5]nonan-7-yl)-2-((3-fluoro-1H-pyrrolo[2,3-b]pyridin-5-yl)oxy)-N-((4-((((1r,4r)-4-hydroxy-4-methylcyclohexyl)methyl)amino)-3-nitrophenyl)sulfonyl)benzamide], the IC50 in assay [1] (setting [5]) turned out to be 0.071 nM; in assay [1] (setting [6]) it was 0.1 nM; in assay [2] it was 0.13 nM; in assay [4], 0.367 nM. For the same compound, in assay [3], the “ratio of IC50 of Bcl-2 G101V/Bcl-2 wt, compared with Example F132b in WO2019210828 and ABT-199 (venetoclax)” value (“ratio of IC50 of Bcl-2 G101V/Bcl-2 wt” below) was “much lower”. In assay [3], the “Ratio of Bcl-2 G101V/WT” value is 1.8.

Take `COc1ccc(CN2CCN(C3CC4(C3)CN(c3ccc(C(=O)NS(=O)(=O)c5ccc(NC[C@H]6CC[C@](C)(O)CC6)c([N+](=O)[O-])c5)c(Oc5cnc6[nH]cc(F)c6c5)c3)C4)[C@H](c3ccccc3C(C)C)C2)cc1OC` [Example 141a, 4-(6-((R)-4-(3,4-dimethoxybenzyl)-2-(2-isopropylphenyl)piperazin-1-yl)-2-azaspiro[3.3]heptan-2-yl)-2-((3-fluoro-1H-pyrrolo[2,3-b]pyridin-5-yl)oxy)-N-((4-((((1r,4r)-4-hydroxy-4-methylcyclohexyl)methyl)amino)-3-nitrophenyl)sulfonyl)benzamide]: the IC50 turned out to be 0.054 nM in assay [1] (setting [5]), 0.054 nM in assay [1] (setting [6]), 0.13 nM in assay [2] and 0.268 nM in assay [4]. Also, in assay [3], the “ratio of IC50 of Bcl-2 G101V/Bcl-2 wt” value is “much lower”. Also, the “Ratio of Bcl-2 G101V/WT” value in assay [3] was determined as 2.5.

With `COc1ccc(CN2CCN(C3CC4(C3)CN(c3ccc(C(=O)NS(=O)(=O)c5ccc(NC[C@H]6CC[C@](C)(O)CC6)c([N+](=O)[O-])c5)c(Oc5cnc6[nH]ccc6c5)c3)C4)[C@H](c3ccccc3C(C)C)C2)cc1OC` [Example 145, 2-((1H-pyrrolo[2,3-b]pyridin-5-yl)oxy)-4-(6-((R)-4-(3,4-dimethoxybenzyl)-2-(2-isopropylphenyl)piperazin-1-yl)-2-azaspiro[3.3]heptan-2-yl)-N-((4-((((1r,4r)-4-hydroxy-4-methylcyclohexyl)methyl)amino)-3-nitrophenyl)sulfonyl)benzamide], the IC50 in assay [1] (setting [5]) is 0.028 nM; in assay [1] (setting [6]), 0.028 nM; in assay [2], 0.084 nM; in assay [4], 0.23 nM. The “ratio of IC50 of Bcl-2 G101V/Bcl-2 wt” value in assay [3] is given as “much lower”. In assay [3], the “Ratio of Bcl-2 G101V/WT” value was found to be 3.

`COc1ccc(CN2CCN(C3CC4(C3)CN(c3ccc(C(=O)NS(=O)(=O)c5ccc(NC[C@H]6CC[C@](C)(O)CC6)c([N+](=O)[O-])c5)c(Oc5cnc6[nH]ccc6c5)c3)C4)[C@H](c3ccccc3C(C)C)C2)cc1` [Example 147, 2-((1H-pyrrolo[2,3-b]pyridin-5-yl)oxy)-N-((4-((((1r,4r)-4-hydroxy-4-methylcyclohexyl)methyl)amino)-3-nitrophenyl)sulfonyl)-4-(6-((R)-2-(2-isopropylphenyl)-4-(4-methoxybenzyl)piperazin-1-yl)-2-azaspiro[3.3]heptan-2-yl) benzamide]: the IC50 in assay [1] (setting [5]) is 0.054 nM; in assay [1] (setting [6]), 0.054 nM; in assay [2] it was 0.17 nM; in assay [4] it was 0.588 nM. The “Ratio of Bcl-2 G101V/WT” value in assay [3] was determined as 3.1.

In the case of `[2H]C([2H])([2H])Oc1ccc(CN2CCN(C3CC4(CCN(c5ccc(C(=O)NS(=O)(=O)c6ccc(NC[C@H]7CC[C@](C)(O)CC7)c([N+](=O)[O-])c6)c(Oc6cnc7[nH]cc(F)c7c6)c5)CC4)C3)[C@H](c3ccccc3C(C)C)C2)cc1OC([2H])([2H])[2H]` [Example 198, 4-(2-((R)-4-(3,4-bis(methoxy-d3)benzyl)-2-(2-isopropylphenyl)piperazin-1-yl)-7-azaspiro[3.5]nonan-7-yl)-2-((3-fluoro-1H-pyrrolo[2,3-b]pyridin-5-yl)oxy)-N-((4-((((1r,4r)-4-hydroxy-4-methylcyclohexyl)methyl)amino)-3-nitrophenyl)sulfonyl)benzamide], the IC50 in assay [1] (setting [5]) came out at 0.072 nM; in assay [1] (setting [6]), 0.072 nM; in assay [2], 0.17 nM; in assay [4] it was 0.27 nM. Moreover, the “Ratio of Bcl-2 G101V/WT” value in assay [3] came to 2.4.
